# Values quoted from earlier work in US20220142904A1, “A METHOD OF COLORING KERATINOUS MATERIAL COMPRISING THE USE OF AN ORGANOSILICON COMPOUND, A COLORING COMPOUND, A SEALING REAGENT, AND A MIXTURE OF SILICONES” (Henkel AG & Co. KGaA, priority 2019, published 2022).
# Details: for solubility in water: 25° C.
solubility in water (in words) (water at 25° C.),Compound,solubility in water
–,"O=S(=O)([O-])c1ccc(N=Nc2c(O)ccc3ccccc23)cc1.[Na+] [Acid Orange 7, sodium salt of 4-[(2-hydroxy-1-naphthyl)azo]benzene sulphonate]",more than 7 g/L
highly soluble,"O=C([O-])C1=NN(c2ccc(S(=O)(=O)[O-])cc2)C(=O)C1N=Nc1ccc(S(=O)(=O)[O-])cc1.[Na+].[Na+].[Na+] (centres unmarked) [Acid Yellow 23, trisodium salt of 4,5-dihydro-5-oxo-1-(4-sulfophenyl)-4-((4-sulfophenyl)azo)-1H-pyrazole-3-carboxylic acid]",–
–,"sodium salts of mono- and disulfonic acids of 2-(2-quinolyl)-1H-indene-1,3(2H)-dione [Acid Yellow 3]",20 mg/mL
–,"Nc1cc(S(=O)(=O)[O-])cc2cc(S(=O)(=O)[O-])c(N=Nc3ccccc3)c(O)c12.[Na+].[Na+] [Acid Red 33, disodium salt of 5-amino-4-hydroxy-3-(phenylazo)-naphthalene-2,7-disulphonate]",2.5 mg/mL
–,"O=C([O-])c1c(Cl)c(Cl)c(Cl)c(Cl)c1-c1c2c(Br)cc(=O)c(Br)c-2oc2c(Br)c(O)cc(Br)c12.O=C([O-])c1c(Cl)c(Cl)c(Cl)c(Cl)c1-c1c2c(Br)cc(=O)c(Br)c-2oc2c(Br)c(O)cc(Br)c12.[Na+].[Na+] [Acid Red 92, disodium salt of 3,4,5,6-tetrachloro-2-(1,4,5,8-tetrabromo-6-hydroxy-3-oxoxanthen-9-yl)benzoic acid]",greater than 10 g/L
